Structures are written as SMILES. Where two headings read alike, the source gives them in different places. Non-standard residues stand in square brackets, D forms with d. Residues, ends and D or L forms follow the SMILES beside them. *: point of attachment. Sta = CC(C)C[C@H](N)[C@@H](O)CC(=O)O; Butanoyl(3,3-Me2) = CC(C)(C)CC(=O)*; Isovaleryl = CC(C)CC(=O)*; Nva = CCC[C@H](N)C(=O)O; Cbz = O=C(OCc1ccccc1)*; Boc = CC(C)(C)OC(=O)*

The record followed here is patent publication US4481192A, “Acid-protease inhibiting peptide derivatives” (SANOFI, priority 1982, dated 1984).

Holding throughout (type): biochemical
For assay [1], the target named is T1, human plasma renin activity (Homo sapiens, UniProt P00797).
T1 construct: the human plasma contain and the substrate: angiotensinogen, and the enzyme: renin; from tissue; host or cells: pool of human plasma
T1 sequence (P00797 67-406): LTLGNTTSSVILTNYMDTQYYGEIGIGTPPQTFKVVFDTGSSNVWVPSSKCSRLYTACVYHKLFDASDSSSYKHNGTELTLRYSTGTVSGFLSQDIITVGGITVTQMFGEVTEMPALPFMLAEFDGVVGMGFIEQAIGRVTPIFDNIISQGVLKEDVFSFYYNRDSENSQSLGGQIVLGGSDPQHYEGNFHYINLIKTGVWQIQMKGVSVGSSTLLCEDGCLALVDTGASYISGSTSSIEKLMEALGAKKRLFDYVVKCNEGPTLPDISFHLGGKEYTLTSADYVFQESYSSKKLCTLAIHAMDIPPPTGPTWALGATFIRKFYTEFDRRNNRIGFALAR
Kind of assay: Inhibition of the human plasma renin activity (P.R.A.). The settings on record: 37° C., pool of human plasma. As for the experimental part:
The angiotensin I released during the reaction (the human plasma contain and the substrate: angiotensinogen, and the enzyme: renin) is measured by radioimmunological determination using a kit.
Of course, an inhibitor of the enzyme for conversion of the PMSF (phenylmethylsulphonyl fluoride) is added to the incubation medium.
Two types of experiments were carried out:
one at pH 6, which is the optimum pH for the enzyme reaction with human renin (maleate buffer, incubation: 30 minutes), and
the other at pH 7.4, which is the physiological pH (phosphate buffer, incubation: 60 minutes).
(§1) A 10^-3 M stock solution of the peptide is made up in a mixture containing equal volumes of a solution A (19 ml of methanol+1 ml of acetic acid) and a solution B (4 ml of methanol+2 ml of sodium hydroxide solution).
(§2) The subsequent dilutions of the peptide are then prepared in the appropriate buffer in accordance with the procedures described above.

The target in a further assay is T2, cathepsin D (Bos taurus, UniProt P80209).
T2 construct: purchased SIGMA C 3138
T2 sequence (P80209 45-390): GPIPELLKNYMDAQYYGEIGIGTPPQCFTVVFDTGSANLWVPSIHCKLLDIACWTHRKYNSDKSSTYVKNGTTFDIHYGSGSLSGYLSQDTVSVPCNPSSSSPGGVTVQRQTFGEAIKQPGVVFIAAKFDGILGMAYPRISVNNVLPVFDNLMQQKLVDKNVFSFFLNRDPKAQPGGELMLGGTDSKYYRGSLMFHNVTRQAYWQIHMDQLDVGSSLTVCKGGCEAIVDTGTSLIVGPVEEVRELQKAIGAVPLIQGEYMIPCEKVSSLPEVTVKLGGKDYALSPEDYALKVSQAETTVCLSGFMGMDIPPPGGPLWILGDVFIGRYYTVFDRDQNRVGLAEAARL
Kind of assay: Enzyme inhibition of cathepsin D. The settings on record: pH 3.2, substrate bovine haemoglobin, 37° C., incubation 30 minutes. The protocol: The method used is very similar to the pepsin method (T. AOYAGI, 1971).
The substrate used is bovine haemoglobin and the enzyme is cathepsin D of bovine origin (SIGMA, No.C 3138, batch 26 C-8100).
0.5% strength haemoglobin is hydrolysed with cathepsin D (200 μg/ml) at 37° C. in citrate-phosphate buffer at pH 3.2.
The substrate, the inhibitor and the enzyme are incubated for 30 minutes.
After precipitation of the proteins with 1.7M perchloric acid, the optical density of the supernatant is determined on a spectrophotometer at 280 nm.
The results are expressed as the percentage reduction in the maximum optical density obtained in the absence of inhibitor.
as §1, §2

The target of another assay is porcine pepsin (Sus scrofa, UniProt P00791). Kind of assay: Inhibition of porcine pepsin. The settings on record: pH 2, substrate bovine haemoglobin, 37° C. The protocol:
The method used is that of TAKAAKI AOYAGI (J. Antibiotics, 24, pages 687-694, 1971). The substrate used is bovine haemoglobin and the enzyme is porcine pepsin.
0.5% strength haemoglobin is hydrolysed with pepsin (1 mcg/ml) at 37° C. in 0.02M KCl-HCl buffer at pH 2.
Preincubation takes place for 3 minutes, followed by incubation for 25 minutes. After precipitation of the proteins with 1.7M perchloric acid, the optical density of the supernatant is determined on a spectrophotometer at 280 nm.
The results are expressed as the percentage inhibition of the maximum optical density obtained in the absence of inhibitor. They are also expressed as an IC50.
as §1, §2

[2] abbreviates: pH 6, maleate buffer, incubation 30 minutes, read-out: INHIBITION OF HUMAN P.R.A. (IC50) pH 6.
[3] abbreviates: pH 7.4, phosphate buffer, incubation 60 minutes, read-out: INHIBITION OF HUMAN P.R.A. (IC50) pH 7.4.

porcine pepsin, sequence (P00791 60-385): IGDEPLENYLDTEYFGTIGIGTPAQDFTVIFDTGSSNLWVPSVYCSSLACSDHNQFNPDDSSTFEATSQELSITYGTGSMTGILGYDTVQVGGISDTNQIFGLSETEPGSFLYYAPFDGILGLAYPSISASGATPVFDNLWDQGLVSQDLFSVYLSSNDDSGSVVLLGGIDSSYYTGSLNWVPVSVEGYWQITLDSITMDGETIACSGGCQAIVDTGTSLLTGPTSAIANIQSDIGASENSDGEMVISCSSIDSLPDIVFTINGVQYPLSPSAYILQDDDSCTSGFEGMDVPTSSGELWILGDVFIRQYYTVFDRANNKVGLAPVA

On to `COC(=O)C[C@H](O)[C@H](CC(C)C)NC(=O)[C@H](C)NC(=O)C[C@H](O)[C@H](CC(C)C)NC(=O)[C@H](Cc1ccccc1)NC(=O)[C@H](Cc1ccccc1)NC(=O)OC(C)(C)C` [SR 41331, Boc--Phe--Phe--Sta--Ala--Sta--OMe] (Boc-FF[Sta]A[Sta]-OMe), for which the IC50 (commonly the point on the concentration scale where inhibition reaches its midpoint) in assay [1] (setting [2]) came to 3.5 nM; in assay [1] (setting [3]) it was 190 nM; against cathepsin D it was 180 nM; against porcine pepsin, 14 nM.

Regarding `COC(=O)C[C@H](O)[C@H](CC(C)C)NC(=O)[C@H](C)NC(=O)C[C@H](O)[C@H](CC(C)C)NC(=O)[C@H](Cc1c[nH]c2ccccc12)NC(=O)[C@H](Cc1c[nH]c2ccccc12)NC(=O)OC(C)(C)C` [SR 41376, Boc--Trp--Trp--Sta--Ala--Sta--OMe] (Boc-WW[Sta]A[Sta]-OMe), the IC50 against cathepsin D worked out at 130 nM; at porcine pepsin it was 120 nM.

As for `COC(=O)C[C@H](O)[C@H](CC(C)C)NC(=O)[C@H](C)NC(=O)C[C@H](O)[C@H](CC(C)C)NC(=O)[C@H](Cc1c[nH]cn1)NC(=O)[C@H](Cc1ccccc1)NC(=O)OC(C)(C)C` [SR 41395, Boc--Phe--His--Sta--Ala--Sta--OMe] (Boc-FH[Sta]A[Sta]-OMe), the figures for the IC50 against cathepsin D and against porcine pepsin were 870 nM and 1300 nM, respectively.

Consider `COC(=O)C[C@H](O)[C@H](CC(C)C)NC(=O)[C@H](C)NC(=O)C[C@H](O)[C@H](CC(C)C)NC(=O)[C@@H](NC(=O)[C@H](Cc1ccccc1)NC(=O)OCc1ccccc1)C(C)C` [SR 41405, Z--Phe--Val--Sta--Ala--Sta--OMe] (Cbz-FV[Sta]A[Sta]-OMe), for which the IC50 at cathepsin D was 95 nM; at porcine pepsin, 65 nM.

On to `COC(=O)C[C@H](O)[C@H](CC(C)C)NC(=O)[C@H](C)NC(=O)C[C@H](O)[C@H](CC(C)C)NC(=O)[C@@H](NC(=O)[C@H](Cc1c[nH]c2ccccc12)NC(=O)OCc1ccccc1)C(C)C` [SR 41485, Z--Trp--Val--Sta--Ala--Sta--OMe] (Cbz-WV[Sta]A[Sta]-OMe), for which the IC50 stood at 6.75 nM in assay [1] (setting [2]), 150 nM in assay [1] (setting [3]), 75 nM against cathepsin D and 29 nM at porcine pepsin.

`CC(C)C[C@H](NC(=O)[C@H](C)NC(=O)C[C@H](O)[C@H](CC(C)C)NC(=O)[C@H](Cc1c[nH]cn1)NC(=O)[C@H](Cc1ccccc1)NC(=O)OC(C)(C)C)[C@@H](O)CC(=O)O` [SR 41492, Boc--Phe--His--Sta--Ala--Sta--OH] (Boc-FH[Sta]A[Sta]-OH): the IC50 in assay [1] (setting [3]) stood at 45 nM; against cathepsin D, 700 nM; against porcine pepsin, 550 nM.

`COC(=O)C[C@H](O)[C@H](CC(C)C)NC(=O)[C@H](C)NC(=O)C[C@H](O)[C@H](CC(C)C)NC(=O)[C@H](Cc1c[nH]cn1)NC(=O)[C@H](Cc1c[nH]c2ccccc12)NC(=O)OC(C)(C)C` [SR 41619, Boc--Trp--His--Sta--Ala--Sta--OMe] (Boc-WH[Sta]A[Sta]-OMe): at cathepsin D, half-maximal inhibition (IC50) required 750 nM.

Take `CCC[C@H](NC(=O)[C@H](Cc1ccccc1)NC(=O)CC(C)C)C(=O)N[C@@H](CC(C)C)[C@@H](O)CC(=O)N[C@@H](C)C(=O)N[C@@H](CC(C)C)[C@@H](O)CC(=O)OC` [SR 41995, iVa--Phe--Nva--Sta--Ala--Sta--OMe] (Isovaleryl-F[Nva][Sta]A[Sta]-OMe): the IC50 was 0.03 nM in assay [1] (setting [2]), 42 nM in assay [1] (setting [3]) and 16 nM against porcine pepsin.

On to `CC[C@H](C)[C@H](NC(=O)OC(C)(C)C)C(=O)N[C@@H](Cc1c[nH]cn1)C(=O)N[C@@H](CC(C)C)[C@@H](O)CC(=O)N[C@@H](C)C(=O)N[C@@H](CC(C)C)[C@@H](O)CC(=O)OC` [SR 42019, Boc--Ile--His--Sta--Ala--Sta--OMe] (Boc-IH[Sta]A[Sta]-OMe), for which the IC50 in assay [1] (setting [2]) was 110 nM; on porcine pepsin, 73 nM.

As to `COC(=O)C[C@H](O)[C@H](CC(C)C)NC(=O)[C@H](C)NC(=O)C[C@H](O)[C@H](CC(C)C)NC(=O)[C@H](CCCCNC(=O)OCc1ccccc1)NC(=O)[C@H](Cc1ccccc1)NC(=O)CC(C)C` [SR 42130, iVa--Phe--Lys(Z)--Sta--Ala--Sta--OMe] (Isovaleryl-FK(Cbz)[Sta]A[Sta]-OMe), the IC50 in assay [1] (setting [2]) was 52 nM; in assay [1] (setting [3]), 2600 nM; on porcine pepsin, 27 nM.

On to `COC(=O)C[C@H](O)[C@H](CC(C)C)NC(=O)[C@H](C)NC(=O)C[C@H](O)[C@H](CC(C)C)NC(=O)[C@H](Cc1ccccc1)NC(=O)[C@H](Cc1ccccc1)NC(=O)CC(C)(C)C` [SR 42256, t--BuAc--Phe--Phe--Sta--Ala--Sta--OMe] ({Butanoyl(3,3-Me2)}-FF[Sta]A[Sta]-OMe), for which the IC50 in assay [1] (setting [2]) worked out at 26 nM; in assay [1] (setting [3]) it was 480 nM; against porcine pepsin, 27 nM.

Take `COC(=O)C[C@H](O)[C@H](CC(C)C)NC(=O)[C@H](C)NC(=O)C[C@H](O)[C@H](CC(C)C)NC(=O)[C@H](C)NC(=O)[C@H](Cc1ccccc1)NC(=O)CC(C)C` [SR 42258, iVa--Phe--Ala--Sta--Ala--Sta--OMe] (Isovaleryl-FA[Sta]A[Sta]-OMe): the IC50 turned out to be 9 nM in assay [1] (setting [2]), 470 nM in assay [1] (setting [3]) and 18 nM on porcine pepsin.

Turning to `COC(=O)C[C@H](O)[C@H](CC(C)C)NC(=O)[C@H](C)NC(=O)C[C@H](O)[C@H](CC(C)C)NC(=O)CNC(=O)[C@H](Cc1ccccc1)NC(=O)CC(C)C` [SR 42261, iVa--Phe--Gly--Sta--Ala--Sta--OMe] (Isovaleryl-FG[Sta]A[Sta]-OMe), the IC50 in assay [1] (setting [2]) worked out at 170 nM; in assay [1] (setting [3]), 4700 nM; against porcine pepsin, 750 nM.
